Activity calls are given as the source filed them. The calls are words filed in the database; no cut-off is given here.
What was measured:
Mus musculus [1] = assay: Anti-inflammatory activity in DSS-induced ulcerative colitis male C57BL/6 mouse model assessed as increase in colon length at 60 mg/kg administered via gavage for 10 days; type: functional, organism-based; settings: time 10.0 day
[2] = target: T1, Myeloblastin (Mus musculus) (UniProt Q61096); assay: Induction of proteinase 3 degradation in C57BL/6 mouse bone marrow cells assessed as remaining activity at 10 uM incubated for 12 hrs by Western blot analysis relative to control; type: cell-based; settings: Bone marrow cell
T1 sequence (whole entry): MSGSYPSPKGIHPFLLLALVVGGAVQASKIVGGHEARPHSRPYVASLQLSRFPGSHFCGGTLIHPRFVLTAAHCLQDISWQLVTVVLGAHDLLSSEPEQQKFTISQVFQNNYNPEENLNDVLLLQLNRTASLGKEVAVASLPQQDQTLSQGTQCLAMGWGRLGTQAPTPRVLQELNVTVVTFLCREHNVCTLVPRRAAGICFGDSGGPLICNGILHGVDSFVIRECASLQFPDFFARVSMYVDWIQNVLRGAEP

[3] = target: T1, Myeloblastin (Mus musculus); assay: Induction of proteinase 3 degradation in C57BL/6 mouse bone marrow cells at 10 uM incubated for 24 hrs by Western blot analysis; type: cell-based; settings: Bone marrow cell
Dipeptidyl peptidase 1 = Dipeptidyl peptidase 1 (Homo sapiens, UniProt P53634); assay: Inhibition of human recombinant Cathepsin C using Gly-Phe-AFC as substrate preincubated for 3 hrs followed by substrate addition and measured after 1 hr by fluorescence based multifunctional microplate reader analysis
[4] = target: T1, Myeloblastin (Mus musculus); assay: In vivo inhibition of proteinase 3 in C57BL/6 mouse assessed as reduction in proteinase 3 activity in bone marrow administered orally once daily for 6 days by fluorescence based microplate reader; type: functional, organism-based; settings: dose 5-30 mg/kg, route po, time 6.0 day
[5] = Half life in male Sprague-Dawley rat at 10 mg/kg, po measured at 5 to 1440 mins by LC-MS/MS analysis; type: ADME, organism-based; settings: in vivo, time 5-1440 min
[6] = target: T2, Cathepsin G (Mus musculus) (UniProt P28293); assay: Induction of Cathepsin G degradation in C57BL/6 mouse bone marrow cells assessed as remaining activity at 10 uM incubated for 12 hrs by Western blot analysis relative to control; type: cell-based; settings: Bone marrow cell
T2 sequence (whole entry): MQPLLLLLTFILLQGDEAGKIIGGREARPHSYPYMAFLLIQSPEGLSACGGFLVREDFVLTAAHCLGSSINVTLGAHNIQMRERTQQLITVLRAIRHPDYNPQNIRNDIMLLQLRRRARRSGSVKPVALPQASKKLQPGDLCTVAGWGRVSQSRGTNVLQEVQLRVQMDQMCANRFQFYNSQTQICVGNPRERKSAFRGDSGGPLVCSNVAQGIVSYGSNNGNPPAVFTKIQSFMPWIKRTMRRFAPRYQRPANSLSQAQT

Mus musculus [7] = assay: Anti-inflammatory activity in DSS-induced ulcerative colitis male C57BL/6 mouse model at 60 mg/kg administered twice daily; type: functional, organism-based
Mus musculus [8] = assay: Anti-inflammatory activity in DSS-induced ulcerative colitis male C57BL/6 mouse model assessed as reduction in neutrophil elastase level in serum at 60 mg/kg administered via gavage for 10 days relative to control; type: functional; design: scale not given: the % may be the effect or the level left; settings: time 10 day
[9] = Acute toxicity in ICR mouse assessed as heart pathological change at 1500 mg/kg, po administered daily for 7 days by H and E staining based analysis; type: organism-based; settings: in vivo, 168 h, time 7 day
[10] = Cmax in male Sprague-Dawley rat at 10 mg/kg, po measured at 5 to 1440 mins by LC-MS/MS analysis; type: ADME, organism-based; settings: in vivo, time 5-1440 min
[11] = target: T3, Neutrophil elastase (Mus musculus) (UniProt Q3UP87); assay: In vivo inhibition of neutrophil elastase in C57BL/6 mouse assessed as reduction in neutrophil elastase activity in bone marrow at 30 mg/kg, po administered once daily for 6 days by fluorescence based microplate reader relative to control; type: functional, organism-based; settings: time 6.0 day
T3 sequence (whole entry): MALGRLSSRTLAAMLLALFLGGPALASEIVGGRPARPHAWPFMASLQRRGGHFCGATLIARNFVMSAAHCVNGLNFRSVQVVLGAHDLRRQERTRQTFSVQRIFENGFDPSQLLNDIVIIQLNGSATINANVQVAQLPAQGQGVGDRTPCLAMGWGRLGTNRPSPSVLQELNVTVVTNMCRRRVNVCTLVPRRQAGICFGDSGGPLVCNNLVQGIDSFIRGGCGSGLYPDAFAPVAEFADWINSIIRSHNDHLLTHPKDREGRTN

[12] = Acute toxicity in ICR mouse assessed as body weight loss at 500 mg/kg, po administered twice daily for 7 days; type: organism-based; settings: in vivo, 168 h, time 7 day
[13] = Acute toxicity in ICR mouse assessed as spleen pathological change at 1500 mg/kg, po administered daily for 7 days by H and E staining based analysis; type: organism-based; settings: in vivo, 168 h, time 7 day
Mus musculus [14] = assay: Anti-inflammatory activity in DSS-induced ulcerative colitis male C57BL/6 mouse model assessed as reduction in crypt loss in colon at 60 mg/kg administered via gavage for 10 days by H and E staining based analysis; type: functional, organism-based; settings: time 10.0 day

Chain of Dipeptidyl peptidase 1 (P53634 25-134 limits assumed): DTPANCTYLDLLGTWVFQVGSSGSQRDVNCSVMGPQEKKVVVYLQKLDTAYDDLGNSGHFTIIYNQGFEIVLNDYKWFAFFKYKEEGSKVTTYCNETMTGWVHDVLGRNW
Chain of Dipeptidyl peptidase 1 (P53634 231-394 limits assumed): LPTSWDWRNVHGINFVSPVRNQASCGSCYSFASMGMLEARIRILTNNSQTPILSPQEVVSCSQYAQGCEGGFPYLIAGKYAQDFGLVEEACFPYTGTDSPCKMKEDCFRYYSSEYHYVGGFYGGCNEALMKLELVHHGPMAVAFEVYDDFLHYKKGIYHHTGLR
Chain of Dipeptidyl peptidase 1 (P53634 395-463 limits assumed): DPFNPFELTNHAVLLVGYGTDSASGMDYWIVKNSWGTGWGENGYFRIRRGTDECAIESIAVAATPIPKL

Structure (SMILES): O=C1Nc2c(cccc2-c2ccc(NC3CCOCC3)cc2)/C1=C/c1ccnc2ccccc12
- Activity (Mus musculus [1]): Active; Significantly More Effective Than In Mesalazine Treatment Group
- Activity [2]: 75%
- Activity [3]: Active
- IC50 (Dipeptidyl peptidase 1): 84.3 nM
- inhibition [4]: Dose-dependent-effect
- half-life [5]: 1.76 h
- Activity [6]: 75%
- Activity (Mus musculus [7]): Active; Therapeutic Effect Is Slightly Better Than 5-Asa But Worse Than Azd7986
- Activity (Mus musculus [8]): 52%
- Activity [9]: Non-toxic
- Cmax [10]: 158 ng/mL
- inhibition [11]: 59.1%
- Activity [12]: Non-toxic
- Activity [13]: Non-toxic
- Activity (Mus musculus [14]): Active

Reference: ChEMBL document CHEMBL6092168, “Identification of novel indolinone derivatives as CTSC inhibitors to treat inflammatory bowel disease by modulating inflammatory factors” (Eur J Med Chem, 2024)
